Data taken from ChEMBL document CHEMBL1147331, “Cytotoxic and antimalarial bisbenzylisoquinoline alkaloids from Stephania erecta” (J Nat Prod, 1993).
Converted amounts (≈) assume the structure as drawn.

How the values were obtained:
[1] = Cytotoxicity against mouse P388 cells after 2 days by sulforhodamine B assay; type: cell-based; settings: read-out: ED50
[2] = Ratio of ED50 for human KB cells to ED50 for human KBV1 cells; type: ADME, cell-based; settings: KB cells and KBV1 cells, read-out: Ratio ED50
[3] = Selectivity index, ratio of ED50 for human KB cells to ED50 for chloroquine-sensitive Plasmodium falciparum D6; type: toxicity, cell-based; settings: read-out: Ratio ED50
[4] = Selectivity index, ratio of ED50 for human BCA1 cells to ED50 for chloroquine-resistant Plasmodium falciparum W2; type: toxicity, cell-based; settings: read-out: Ratio ED50
[5] = Selectivity index, ratio of ED50 for human COL1 cells to ED50 for chloroquine-resistant Plasmodium falciparum W2; type: toxicity, cell-based; settings: read-out: Ratio ED50
[6] = Selectivity index, ratio of ED50 for human BCA1 cells to ED50 for chloroquine-sensitive Plasmodium falciparum D6; type: toxicity, cell-based; settings: read-out: Ratio ED50
[7] = Selectivity index, ratio of ED50 for human ZR-75-1 cells to ED50 for chloroquine-sensitive Plasmodium falciparum D6; type: toxicity, cell-based; settings: read-out: Ratio ED50
[8] = in vitro; settings: mouse, P388 cells
Description: Selectivity index, ratio of ED50 for mice (Mus musculus) P388 cells to ED50 for chloroquine-resistant Plasmodium falciparum W2

[9] = Selectivity index, ratio of ED50 for human HT1080 cells to ED50 for chloroquine-sensitive Plasmodium falciparum D6; type: toxicity, cell-based, HT-1080; settings: read-out: Ratio ED50
[10] = in vitro; settings: human, A431 cells
Description: Selectivity index, ratio of ED50 for human A431 cells to ED50 for chloroquine-resistant Plasmodium falciparum W2

[11] = Selectivity index, ratio of ED50 for human KB cells to ED50 for chloroquine-resistant Plasmodium falciparum W2; type: toxicity, cell-based; settings: read-out: Ratio ED50
[12] = Selectivity index, ratio of ED50 for human LUC1 cells to ED50 for chloroquine-sensitive Plasmodium falciparum D6; type: toxicity, cell-based; settings: read-out: Ratio ED50
[13] = Selectivity index, ratio of ED50 for human HT1080 cells to ED50 for chloroquine-resistant Plasmodium falciparum W2; type: toxicity, cell-based, HT-1080; settings: read-out: Ratio ED50
[14] = Cytotoxicity against human LNCAP cells after 3 days by sulforhodamine B assay; type: cell-based; settings: read-out: ED50
[15] = Selectivity index, ratio of ED50 for human COL1 cells to ED50 for chloroquine-sensitive Plasmodium falciparum D6; type: toxicity, cell-based; settings: read-out: Ratio ED50
[16] = Selectivity index, ratio of ED50 for human LNCaP cells to ED50 for chloroquine-resistant Plasmodium falciparum W2; type: toxicity, cell-based; settings: read-out: Ratio ED50
[17] = Cytotoxicity against human LUC1 cells after 3 days by sulforhodamine B assay; type: cell-based; settings: read-out: ED50
[18] = Cytotoxicity against human ZR-75-1 cells after 3 days by sulforhodamine B assay; type: cell-based; settings: read-out: ED50
[19] = Cytotoxicity against human HT1080 cells after 3 days by sulforhodamine B assay; type: cell-based, HT-1080; settings: read-out: ED50
[20] = Selectivity index, ratio of ED50 for human LNCaP cells to ED50 for chloroquine-sensitive Plasmodium falciparum D6; type: toxicity, cell-based; settings: read-out: Ratio ED50
[21] = Selectivity index, ratio of ED50 for human KB-V1 cells to ED50 for chloroquine-sensitive Plasmodium falciparum D6; type: toxicity, cell-based; settings: read-out: Ratio ED50
[22] = Selectivity index, ratio of ED50 for human MEL2 cells to ED50 for chloroquine-resistant Plasmodium falciparum W2; type: toxicity, cell-based; settings: read-out: Ratio ED50
[23] = Cytotoxicity against human KBV1 cells after 3 days by sulforhodamine B assay; type: cell-based, KB-V1; settings: read-out: ED50
[24] = test system: Plasmodium falciparum; assay: Antimalarial activity after 24 hrs against chloroquine-sensitive Plasmodium falciparum D6 infected type A+ human erythrocytes by [3H]hypoxanthine uptake; type: functional; settings: read-out: ED50 (the source's name)
[25] = Cytotoxicity against human Col1 cells after 3 days by sulforhodamine B assay; type: cell-based; settings: read-out: ED50
[26] = test system: Plasmodium falciparum; assay: Antimalarial activity after 24 hrs against chloroquine-resistant Plasmodium falciparum W2 infected type A+ human erythrocytes by [3H]hypoxanthine uptake; type: functional; settings: read-out: ED50 (the source's name)
[27] = Selectivity index, ratio of ED50 for human LUC1 cells to ED50 for chloroquine-resistant Plasmodium falciparum W2; type: toxicity, cell-based; settings: read-out: Ratio ED50
[28] = in vitro; settings: mouse, P388 cells; remark: listed apart in the source
Description: Selectivity index, ratio of ED50 for mice (Mus musculus) P388 cells to ED50 for chloroquine-sensitive Plasmodium falciparum D6

[29] = Selectivity index, ratio of ED50 for human ZR-75-1 cells to ED50 for chloroquine-resistant Plasmodium falciparum W2; type: toxicity, cell-based; settings: read-out: Ratio ED50
[30] = in vitro; settings: human, A431 cells; remark: listed apart in the source
Description: Selectivity index, ratio of ED50 for human A431 cells to ED50 for chloroquine-sensitive Plasmodium falciparum D6

[31] = Cytotoxicity against human SK-MEL-2 cells after 3 days by sulforhodamine B assay; type: cell-based; settings: read-out: ED50
[32] = Selectivity index, ratio of ED50 for human KB-V1 cells to ED50 for chloroquine-resistant Plasmodium falciparum W2; type: toxicity, cell-based; settings: read-out: Ratio ED50
[33] = Cytotoxicity against human KB cells after 3 days by sulforhodamine B assay; type: cell-based; settings: read-out: ED50
[34] = Cytotoxicity against human BCA1 cells after 3 days by sulforhodamine B assay; type: cell-based; settings: read-out: ED50
[35] = Selectivity index, ratio of ED50 for human MEL2 cells to ED50 for chloroquine-sensitive Plasmodium falciparum D6; type: toxicity, cell-based; settings: read-out: Ratio ED50
[36] = Cytotoxicity against human A431 cells after 3 days by sulforhodamine B assay; type: cell-based, A-431; settings: read-out: ED50

Compound	CC50 at 48 h [1] [µg/mL]	selectivity ratio [3]	selectivity ratio [4]	selectivity ratio [5]	selectivity ratio [6]	selectivity ratio [7]	selectivity ratio [8]	selectivity ratio [9]	selectivity ratio [10]	selectivity ratio [11]	selectivity ratio [12]	selectivity ratio [13]	CC50 at 72 h [14] [µg/mL]	selectivity ratio [15]	selectivity ratio [16]	CC50 at 72 h [17] [µg/mL]	CC50 at 72 h [18] [µg/mL]	CC50 at 72 h [19] [µg/mL]	selectivity ratio [20]	selectivity ratio [21]	other results
COc1ccc2cc1Oc1ccc(cc1)C[C@H]1c3c(cc(OC)c4c3Oc3cc5c(cc3O4)CCN(C)[C@@H]5C2)CCN1C	5.6 (≈ 9.71 µM)	49	9	14	24	12	22	23	10	19	79	9	2.1 (≈ 3.64 µM)	37	8	7.7 (≈ 13.4 µM)	1.2 (≈ 2.08 µM)	2.2 (≈ 3.81 µM)	22	4	selectivity ratio [2]: 10; selectivity ratio [22]: 34; CC50 at 72 h [23]: 0.4 µg/mL (≈ 0.694 µM); EC50 [24]: 0.0974 µg/mL (≈ 0.169 µM); CC50 at 72 h [25]: 3.6 µg/mL (≈ 6.24 µM); EC50 [26]: 0.256 µg/mL (≈ 0.443 µM); selectivity ratio [27]: 30; selectivity ratio [28]: 57; selectivity ratio [29]: 5; selectivity ratio [30]: 27; CC50 at 72 h [31]: 8.7 µg/mL (≈ 15.1 µM); selectivity ratio [32]: 2; CC50 at 72 h [33]: 4.8 µg/mL (≈ 8.32 µM); CC50 at 72 h [34]: 2.3 µg/mL (≈ 3.99 µM); selectivity ratio [35]: 89; CC50 at 72 h [36]: 2.6 µg/mL (≈ 4.51 µM)
COc1ccc2cc1Oc1ccc(cc1)C[C@H]1c3cc(c(OC)cc3CCN1C)Oc1c(OC)c(OC)cc3c1[C@@H](C2)N(C)CC3	5.6 (≈ 8.99 µM)	40	99	192	33	30	103	67	154	121	61	202	9.4 (≈ 15.1 µM)	64	172	10 (≈ 16.1 µM)	5 (≈ 8.03 µM)	11 (≈ 17.7 µM)	57	9	selectivity ratio [22]: 357; CC50 at 72 h [23]: 1.5 µg/mL (≈ 2.41 µM); EC50 [24]: 0.165 µg/mL (≈ 0.265 µM); CC50 at 72 h [25]: 10.5 µg/mL (≈ 16.9 µM); EC50 [26]: 0.0546 µg/mL (≈ 0.0877 µM); selectivity ratio [27]: 183; selectivity ratio [28]: 34; selectivity ratio [29]: 92; selectivity ratio [30]: 51; CC50 at 72 h [31]: 19.5 µg/mL (≈ 31.3 µM); selectivity ratio [32]: 28; CC50 at 72 h [33]: 6.6 µg/mL (≈ 10.6 µM); CC50 at 72 h [34]: 5.4 µg/mL (≈ 8.67 µM); selectivity ratio [35]: 118; CC50 at 72 h [36]: 8.4 µg/mL (≈ 13.5 µM)
